Assay results taken from patent US9681664B2, “Macrocyclic picolinamides as fungicides” (Dow Agrosciences LLC, priority 2012, dated 2017).
Like-named read-outs stand apart in the source and are kept apart here.

Tests used:
Assay type in all cases: in vivo
[1] = test system: Mycosphaerella graminicola; Anamorph: Septoria tritici; experiment: Leaf blotch of wheat (SEPTTR) disease control on wheat seedlings; settings: Zymoseptoria tritici; for pest or weed control at 121.5 g/ha: low volume application, 121.5 g/H
Method in brief: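 Protective or curative format: Septoria tritici inoculation either preceded or followed fungicide application to first-leaf Yuma wheat. Severity scored 0–100%; control expressed versus untreated.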

Leptosphaeria nodorum = experiment: Wheat glume blotch (LEPTNO) disease control; settings: Parastagonospora nodorum, 24 h, High volume application, 1 Day Protectant, read-out: LEPTNO 1 DP disease control
Experimental: Technical grades of materials were dissolved in acetone, which were then mixed with nine volumes of water containing 110 ppm Triton X-100. The fungicide solutions were applied onto wheat seedlings using an automated booth sprayer to run-off. All sprayed plants were allowed to air dry prior to further handling. All fungicides were evaluated using the aforementioned method for their activity vs. all target diseases. Wheat leaf blotch and brown rust activity were also evaluated using track spray applications, in which case the fungicides were formulated as EC formulations, containing 0.1% Trycol 5941 in the spray solutions. Wheat plants (variety Yuma) were grown from seed in a greenhouse in 50% mineral soil/50% soil-less Metro mix until the first leaf was fully emerged, with 7-10 seedlings per pot. These plants were inoculated with an aqueous spore suspension of Leptosphaeria nodorum 24 hr after fungicide treatments. After inoculation the plants were kept in 100% relative humidity (one day in a dark dew chamber followed by two days in a lighted dew chamber at 20° C.) to permit spores to germinate and infect the leaf. The plants were then transferred to a greenhouse set at 20° C. for disease to develop. Fungicide formulation, application and disease assessment followed the procedures as described in the Example A.

Uncinula necator = experiment: Grape powdery mildew (UNCINE) disease control; settings: Erysiphe necator, 24 h, High volume application, 1 Day Protectant, read-out: UNCINE 1 DP disease control
Experimental: Technical grades of materials were dissolved in acetone, which were then mixed with nine volumes of water containing 110 ppm Triton X-100. The fungicide solutions were applied onto wheat seedlings using an automated booth sprayer to run-off. All sprayed plants were allowed to air dry prior to further handling. All fungicides were evaluated using the aforementioned method for their activity vs. all target diseases. Wheat leaf blotch and brown rust activity were also evaluated using track spray applications, in which case the fungicides were formulated as EC formulations, containing 0.1% Trycol 5941 in the spray solutions. Grape seedlings (variety Carignane) were grown in soil-less Metro mix, with one plant per pot, and used in the test when approximately one month old. Plants were inoculated 24 hr after fungicide treatment by shaking spores from infected leaves over test plants. Plants were maintained in a greenhouse set at 20° C. until disease was fully developed. Fungicide formulation, application and disease assessment on the sprayed leaves followed the procedures as described in the Example A.

Erysiphe cichoracearum = experiment: Powdery mildew of cucumber (ERYSCI) disease control; settings: Golovinomyces cichoracearum, 24 h, 1 Day Protectant, high volume, read-out: Disease Control ERYSCI 1 DP
Experimental: Technical grades of materials were dissolved in acetone, which were then mixed with nine volumes of water containing 110 ppm Triton X-100. The fungicide solutions were applied onto wheat seedlings using an automated booth sprayer to run-off. All sprayed plants were allowed to air dry prior to further handling. All fungicides were evaluated using the aforementioned method for their activity vs. all target diseases. Wheat leaf blotch and brown rust activity were also evaluated using track spray applications, in which case the fungicides were formulated as EC formulations, containing 0.1% Trycol 5941 in the spray solutions. Cucumber seedlings (variety Bush Pickle) were grown in soil-less Metro mix, with one plant per pot, and used in the test when 12 to 14 days old. Plants were inoculated with a spore suspension 24 hr following fungicide treatments. After inoculation the plants remained in the greenhouse set at 20° C. until disease was fully expressed. Fungicide formulation, application and disease assessment on the sprayed leaves followed the procedures as described in the Example A.

Phakopsora pachyrhizi = experiment: Asian soybean rust (PHAKPA) disease control; settings: topical, high volume
Method in brief: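 Compounds in acetone diluted with nine volumes water containing 0.011% Tween 20, sprayed to run-off on two-week-old Williams 82 soybean seedlings, inoculated 3 days before or 1 day after treatment. Plants held 24 h in dark dew room at 22 °C, 100% RH, then at 23 °C; disease severity scored on sprayed leaves.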

[2] = test system: Blumeria graminis f. sp. hordei; Synonym: Erysiphe graminis f. sp. hordei; experiment: Barley powdery mildew (ERYSGH) disease control; settings: 24 h, 1 Day Protectant, high volume, read-out: Disease Control ERYSGH 1 DP
Experimental: Technical grades of materials were dissolved in acetone, which were then mixed with nine volumes of water containing 110 ppm Triton X-100. The fungicide solutions were applied onto wheat seedlings using an automated booth sprayer to run-off. All sprayed plants were allowed to air dry prior to further handling. All fungicides were evaluated using the aforementioned method for their activity vs. all target diseases. Wheat leaf blotch and brown rust activity were also evaluated using track spray applications, in which case the fungicides were formulated as EC formulations, containing 0.1% Trycol 5941 in the spray solutions. Barley seedlings (variety Harrington) were propagated in soil-less Metro mix, with each pot having 8 to 12 plants, and used in the test when first leaf was fully emerged. Test plants were inoculated by dusting with infected stock plants 24 hr after fungicide treatments. After inoculation the plants were kept in a greenhouse set at 20° C. for disease to develop. Fungicide formulation, application and disease assessment on the sprayed leaves followed the procedures as described in the Example A.

[3] = 24 h, High volume application, 1 Day Protectant, read-out: SEPTTR 1DP disease control
[4] = 72 h, High volume application, 3 Day Curative, read-out: SEPTTR 3DC disease control
[5] = 24 h, 1 Day Protectant, read-out: Disease Control PHAKPA 1DP
[6] = 72 h, 3 Day Curative, read-out: Disease Control PHAKPA 3DC
[7] = 24 h, Wheat Leaf Blotch, 1 Day Protectant, high volume application, read-out: Disease Control SEPTTR 1 DP 100 ppm
[8] = 24 h, Wheat Leaf Blotch, 1 Day Protectant, read-out: Disease Control SEPTTR 1 DP 121.5 g/H
[9] = 72 h, Wheat Leaf Blotch, 3 Day Curative, high volume application, read-out: Disease Control SEPTTR 3 DC 100 ppm
[10] = 72 h, Wheat Leaf Blotch, 3 Day Curative, read-out: Disease Control SEPTTR 3 DC 121.5 g/H

SMILES	pest or weed control at 100 ppm [1, 3] [%]	pest or weed control at 100 ppm [1, 4] [%]	pest or weed control at 100 ppm (Leptosphaeria nodorum) [%]	pest or weed control at 100 ppm (Uncinula necator) [%]	pest or weed control at 100 ppm (Erysiphe cichoracearum) [%]	pest or weed control at 25 ppm (Phakopsora pachyrhizi; [5]) [%]	pest or weed control at 25 ppm (Phakopsora pachyrhizi; [6]) [%]	pest or weed control at 100 ppm [2] [%]	pest or weed control at 100 ppm [1, 7] [%]	pest or weed control at 121.5 g/ha [1, 8] [%]	pest or weed control at 100 ppm [1, 9] [%]	pest or weed control at 121.5 g/ha [1, 10] [%]
COc1ccnc(C(=O)N[C@H]2CCC[C@H](Oc3ccccc3)[C@@H](Oc3ccccc3)[C@H](C)OC2=O)c1OCOC(C)=O [F20]	80 to 100	80 to 100	80 to 100	0 to 80	0 to 80	80 to 100	80 to 100	0 to 80				
COc1ccnc(C(=O)N[C@H]2CCC[C@H](OCC(C)C)[C@@H](Oc3ccccc3)[C@H](C)OC2=O)c1OCOC(C)=O [F26]	80 to 100	80 to 100	80 to 100	0 to 80	0 to 80	80 to 100	80 to 100					
COc1ccnc(C(=O)N[C@H]2CCC[C@H](Oc3ccccc3)[C@@H](OCC(C)C)[C@H](C)OC2=O)c1OCOC(C)=O [F28]	80 to 100	80 to 100	0 to 80	0 to 80	0 to 80	80 to 100	0 to 80	80 to 100				
COc1ccnc(C(=O)N[C@H]2CCC[C@H](OCC(C)C)[C@@H](OCC(C)C)[C@H](C)OC2=O)c1OCOC(C)=O [F29]	80 to 100	80 to 100	80 to 100	80 to 100	80 to 100	80 to 100		80 to 100				
COc1ccnc(C(=O)N[C@H]2CCC[C@H](OCc3ccccc3)[C@@H](OCc3ccccc3)[C@H](C)OC2=O)c1OCOC(C)=O [F30]	80 to 100	0 to 80	80 to 100	0 to 80	0 to 80	80 to 100	0 to 80	0 to 80				
COc1ccnc(C(=O)N[C@H]2CCC[C@H](OCc3ccccc3)[C@@H](Oc3ccccc3)[C@H](C)OC2=O)c1OCOC(C)=O [F31]	80 to 100	80 to 100	80 to 100	0 to 80	< 0			0 to 80				
COc1ccnc(C(=O)N[C@H]2CCC[C@H](OCC(C)C)[C@@H](OC3CCCC3)[C@H](C)OC2=O)c1OCOC(C)=O [F39]	80 to 100	80 to 100	80 to 100	0 to 80	80 to 100	80 to 100	80 to 100	80 to 100				
CCCO[C@H]1CCC[C@H](NC(=O)c2nccc(OC)c2OC(C)=O)C(=O)O[C@@H](C)[C@@H]1Oc1ccccc1 [F141]	80 to 100	80 to 100	80 to 100	0 to 80	0 to 80	80 to 100	80 to 100	80 to 100				
COc1ccnc(C(=O)N[C@H]2CCC[C@H](OCCCC(F)(F)F)[C@@H](OC3CCCC3)[C@H](C)OC2=O)c1OCOC(C)=O [F172]	80 to 100	80 to 100		0 to 80	80 to 100	80 to 100	80 to 100	0 to 80				
CCOCC(=O)OCOc1c(OC)ccnc1C(=O)N[C@H]1CCC[C@H](Oc2ccccc2)[C@@H](OC(=O)C2CCCC2)[C@H](C)OC1=O [F237]				0 to 80	< 0	80 to 100	< 0	0 to 80	0 to 80	< 0	0 to 80	0 to 80
COc1ccnc(C(=O)N[C@H]2CCC[C@H](Oc3ccccc3)[C@@H](OC(=O)C3CC3)[C@H](C)OC2=O)c1OCOC(=O)C(C)C [F241]				0 to 80	< 0	80 to 100	0 to 80	0 to 80	80 to 100	< 0	80 to 100	< 0
COc1ccnc(C(=O)N[C@H]2CCC[C@H](Oc3ccccc3)[C@@H](OC(=O)C3CC3)[C@H](C)OC2=O)c1OC(C)=O [F242]				0 to 80	< 0	80 to 100	0 to 80	0 to 80	80 to 100	0 to 80	80 to 100	0 to 80
C=C(C)CO[C@H]1CCC[C@H](NC(=O)c2nccc(OC)c2OCOC(C)=O)C(=O)O[C@@H](C)[C@@H]1OC [F250]			80 to 100	0 to 80	< 0	0 to 80	< 0	0 to 80		< 0		0 to 80
COc1ccnc(C(=O)N[C@H]2CCC[C@H](OCC(C)C)[C@@H](OC)[C@H](C)OC2=O)c1OCOC(C)=O [F251]			80 to 100	0 to 80	< 0	80 to 100	0 to 80	< 0		< 0		< 0
